These are literature values, as cited in patent EP1556366B1, “PROCESS FOR THE E[…] OLEFINS” (Degussa AG, priority 2002, dated 2004).

The structures appear in SMILES notation. Like-named read-outs stand apart in the source and are kept apart here.

Turning to `CN(C)C` [Me3N, trimethyl amine], the pkB is listed as 4.26. Moreover, the pkB (Table 2, nitrogen bases) is reported as 4.26.

As for `CN` [MeNH2, methyl amine], the pkB is listed as 3.36. The pkB (Table 2, nitrogen bases) is given as 3.36.
